Laboratory results reported in patent US20250002464A1, “NOVEL COMPOUND AND PHARMACEUTICAL COMPOSITION COMPRISING SAME” (SAPIENSBIO INC., priority 2021, published 2025).

Each compound was assayed on α-SMA (assay: α-SMA expression inhibitory ability in MRC5 cell line (Western blotting)). Conditions: TGF-β1 (10 ng/mL), 72 hours, relative to TGF-β1 only.
Assay type: cell-based
Method: Subsequently, the inhibitory effect on pulmonary fibrosis of the compounds according to the present invention was overall evaluated. An MRC5 cell line was treated with each compound at 10 μM, and 2 hours later, treated with TGF-β1 (10 ng/mL). After 72 hours, the cells were lysed using RIPA Buffer, and then an α-SMA protein level was measured through Western blotting. The α-SMA expression level when treating the cells with each compound and TGF-β1 compared to the α-SMA expression level when treating the cells only with TGF-β1 without the compound was calculated as the α-SMA expression inhibitory ability of the corresponding compound. The α-SMA expression inhibitory ability of each compound is summarized in Table 2 below (A: inhibitory ability≥70%, B: 50%: inhibitory ability<70%, C: inhibitory ability<50%).
`CC(C(=O)N1CCN(c2ccccc2Cl)c2ccccc21)N1CCCC1` (stereo not drawn) [Compound 128, 1-(4-(2-chlorophenyl)-3,4-dihydroquinoxaline-1(2H)-yl)-2-(pyrrolidin-1-yl)propan-1-one] was tested, and the inhibition at 10 µM was 50 to 70%. For `O=C(CCN1CCN(C2CC2)CC1)N1CCN(c2ccc(F)cc2)c2cc(F)ccc21` [Compound 43, 3-(4-cyclopropylpiperazin-1-yl)-1-(6-fluoro-4-(4-fluorophenyl)-3,4-dihydroquinoxaline-1(2H)-yl)propan-1-one], the inhibition at 10 µM was less than 50%. In the case of `CC(C(=O)N1CCN(c2ccc(F)cc2)c2ccccc21)N1CCCC1` (stereo not drawn) [Compound 33, 1-(4-(4-fluorophenyl)-3,4-dihydroquinoxaline-1(2H)-yl)-2-(pyrrolidin-1-yl)propan-1-one], the inhibition at 10 µM is reported as 50 to 70%. `O=C(CCN1CCCC1)N1CCN(c2ccc(F)cc2)c2cc(F)ccc21` [Compound 36, 1-(6-fluoro-4-(4-fluorophenyl)-3,4-dihydroquinoxaline-1(2H)-yl)-3-(pyrrolidin-1-yl)propan-1-one] gave an inhibition at 10 µM of no less than 70%. `CC(C(=O)N1CCN(c2cccc(Cl)c2)c2ccccc21)N1CCCC1` (stereo not drawn) [Compound 136, 1-(4-(3-chlorophenyl)-3,4-dihydroquinoxaline-1(2H)-yl)-2-(pyrrolidin-1-yl)propan-1-one] gave an inhibition at 10 µM of no less than 70%. `CC(C)N1CCN(C(=O)CCN2CCN(C)CC2)c2ccccc21` [Compound 179, 1-(4-isopropyl-3,4-dihydroquinoxaline-1(2H)-yl)-3-(4-methylpiperazin-1-yl)propan-1-one] was tested, and the inhibition at 10 µM was less than 50%. `O=C(CCN1CCCC1)N1CCN(c2ccccc2)c2cc(F)ccc21` [Compound 1, 1-(6-fluoro-4-phenyl-3,4-dihydroquinoxaline-1(2H)-yl)-3-(pyrrolidin-1-yl)propan-1-one] gave an inhibition at 10 µM of 50 to 70%. In the case of `O=C(CCN1CCCC1)N1CCN(C2CCCCC2)c2ccccc21` [Compound 186, 1-(4-cyclohexyl-3,4-dihydroquinoxaline-1(2H)-yl)-3-(pyrrolidin-1-yl)propan-1-one], the inhibition at 10 µM is reported as 50 to 70%. Compound `O=C(CN1CCCC1)N1CCN(Cc2cccc(Cl)c2)c2ccccc21` [Compound 102, 1-(4-(3-chlorobenzyl)-3,4-dihydroquinoxaline-1(2H)-yl)-2-(pyrrolidin-1-yl)ethan-1-one] has an inhibition at 10 µM of less than 50%. Work on `CN1CCN(CC(=O)N2CCN(Cc3ccccn3)c3ccccc32)CC1` [Compound 118, 2-(4-methylpiperazin-1-yl)-1-(4-(pyridin-2-ylmethyl)-3,4-dihydroquinoxaline-1(2H)-yl)ethan-1-one] yielded an inhibition at 10 µM of less than 50%. Work on `CC(C(=O)N1CCN(c2ccccc2)c2cc(F)ccc21)N1CCC[C@H]1C` (stereo partly drawn) [Compound 13] yielded an inhibition at 10 µM of less than 50%. `CN1CCN(CC(=O)N2CCN(Cc3ccccc3Cl)c3ccccc32)CC1` [Compound 95, 1-(4-(2-chlorobenzyl)-3,4-dihydroquinoxaline-1(2H)-yl)-2-(4-methylpiperazin-1-yl)ethan-1-one] gave an inhibition at 10 µM of 50 to 70%. Work on `O=C(CN1CCN(c2ccccc2)c2ccccc21)N1CCN2CCCC2C1` (stereo not drawn) [Compound 75] yielded an inhibition at 10 µM of 50 to 70%. With `O=C(CN1CCCC1)N1CCN(c2ccccc2Cl)c2ccccc21` [Compound 131, 1-(4-(2-chlorophenyl)-3,4-dihydroquinoxaline-1(2H)-yl)-2-(pyrrolidin-1-yl)ethan-1-one] the inhibition at 10 µM was 50 to 70%. `O=C(CCN1CCCC1)N1CCN(C(=O)c2ccccc2)c2ccccc21` [Compound 196, 1-(4-benzoyl-3,4-dihydroquinoxaline-1(2H)-yl)-3-(pyrrolidin-1-yl)propan-1-one] showed an inhibition at 10 µM of less than 50%. `CC(C(=O)N1CCN(c2ccccc2)c2ccccc21)N1CCN(C)CC1` (stereo not drawn) [Compound 62, 2-(4-methylpiperazin-1-yl)-1-(4-phenyl-3,4-dihydroquinoxaline-1(2H)-yl)propan-1-one] gave an inhibition at 10 µM of less than 50%. Work on `CC(C(=O)N1CCN(C(=O)c2ccccc2)c2ccccc21)N1CCCCC1` (stereo not drawn) [Compound 200, 1-(4-benzoyl-3,4-dihydroquinoxaline-1(2H)-yl)-2-(piperidin-1-yl)propan-1-one] yielded an inhibition at 10 µM of less than 50%. For `CC(C(=O)N1CCN(C(C)C)c2ccccc21)N1CCCCC1` (stereo not drawn) [Compound 181, 1-(4-isopropyl-3,4-dihydroquinoxaline-1(2H)-yl)-2-(piperidin-1-yl)propan-1-one], the inhibition at 10 µM was less than 50%. Work on `CC(C(=O)N1CCN(Cc2ccc(Cl)cc2)c2ccccc21)N1CCN(C)CC1` (stereo not drawn) [Compound 110, 1-(4-(4-chlorobenzyl)-3,4-dihydroquinoxaline-1(2H)-yl)-2-(4-methylpiperazin-1-yl)propan-1-one] yielded an inhibition at 10 µM of 50 to 70%. Work on `CN1CCN(CCC(=O)N2CCN(Cc3ccccc3Cl)c3ccccc32)CC1` [Compound 89, 1-(4-(2-chlorobenzyl)-3,4-dihydroquinoxaline-1(2H)-yl)-3-(4-methylpiperazin-1-yl)propan-1-one] yielded an inhibition at 10 µM of 50 to 70%. For `O=C(CN1CCCC1)N1CCN(Cc2ccccn2)c2ccccc21` [Compound 117, 1-(4-(pyridin-2-ylmethyl)-3,4-dihydroquinoxaline-1(2H)-yl)-2-(pyrrolidin-1-yl)ethan-1-one], the inhibition at 10 µM was less than 50%. `O=C(CN1CCCC1)N1CCN(c2cccc(Cl)c2)c2ccccc21` [Compound 138, 1-(4-(3-chlorophenyl)-3,4-dihydroquinoxaline-1(2H)-yl)-2-(pyrrolidin-1-yl)ethan-1-one] gave an inhibition at 10 µM of no less than 70%. Compound `O=C(CCN1CCCC1)N1CCN(Cc2ccncc2)c2ccccc21` [Compound 122, 1-(4-(pyridin-4-ylmethyl)-3,4-dihydroquinoxaline-1(2H)-yl)-3-(pyrrolidin-1-yl)propan-1-one] has an inhibition at 10 µM of 50 to 70%. With `CN1CCN(CC(=O)N2CCN(Cc3cccc(Cl)c3)c3ccccc32)CC1` [Compound 104, 1-(4-(3-chlorobenzyl)-3,4-dihydroquinoxaline-1(2H)-yl)-2-(4-methylpiperazin-1-yl)ethan-1-one] the inhibition at 10 µM was no less than 70%. `O=C(CCN1CC[C@H](O)C1)N1CCN(c2ccc(F)cc2)c2ccccc21` [Compound 23, (S)-1-(4-(4-fluorophenyl)-3,4-dihydroquinoxaline-1(2H)-yl)-3-(3-hydroxypyrrolidin-1-yl)propan-1-one] gave an inhibition at 10 µM of no less than 70%. `O=C(CCN1CCCC1)N1CCN(Cc2ccccc2)c2ccccc21` [Compound 78, 1-(4-benzyl-3,4-dihydroquinoxaline-1(2H)-yl)-3-(pyrrolidin-1-yl)propan-1-one] showed an inhibition at 10 µM of 50 to 70%. For `CN1CCN(CCC(=O)N2CCN(c3ccc(F)cc3)c3cc(F)ccc32)CC1` [Compound 39, 1-(6-fluoro-4-(4-fluorophenyl)-3,4-dihydroquinoxaline-1(2H)-yl)-3-(4-methylpiperazin-1-yl)propan-1-one], the inhibition at 10 µM was 50 to 70%. With `CC(C(=O)N1CCN(CC2CC2)c2ccccc21)N1CCN(C)CC1` (stereo not drawn) [Compound 166, 1-(4-(cyclopropylmethyl)-3,4-dihydroquinoxaline-1(2H)-yl)-2-(4-methylpiperazin-1-yl)propan-1-one] the inhibition at 10 µM was less than 50%. In the case of `CN1CCN(CC(=O)N2CCN(c3ccccn3)c3ccccc32)CC1` [Compound 154, 2-(4-methylpiperazin-1-yl)-1-(4-(pyridin-2-yl)-3,4-dihydroquinoxaline-1(2H)-yl)ethan-1-one di L-tartrate], the inhibition at 10 µM is reported as no less than 70%. `O=C(CCN1CCCC1)N1CCN(c2cccc(Cl)c2)c2ccccc21` [Compound 134, 1-(4-(3-chlorophenyl)-3,4-dihydroquinoxaline-1(2H)-yl)-3-(pyrrolidin-1-yl)propan-1-one] showed an inhibition at 10 µM of no less than 70%. For `C[C@@H]1CCCCN1CCC(=O)N1CCN(c2ccc(F)cc2)c2cc(F)ccc21` [Compound 41, (R)-1-(6-fluoro-4-(4-fluorophenyl)-3,4-dihydroquinoxaline-1(2H)-yl)-3-(2-methylpiperidin-1-yl)propan-1-one], the inhibition at 10 µM was less than 50%. With `C[C@H]1CCCCN1C(=O)CN1CCN(c2ccccc2)c2ccccc21` [Compound 71, (S)-1-(2-methylpiperidin-1-yl)-2-(4-phenyl-3,4-dihydroquinoxaline-1(2H)-yl)ethan-1-one] the inhibition at 10 µM was less than 50%. `CC(C(=O)N1CCN(C(=O)c2ccccc2)c2ccccc21)N1CCCC1` (stereo not drawn) [Compound 199, 1-(4-benzoyl-3,4-dihydroquinoxaline-1(2H)-yl)-2-(pyrrolidin-1-yl)propan-1-one] was tested, and the inhibition at 10 µM was less than 50%. Compound `O=C(CCN1CCCCC1)N1CCN(c2ccc(Cl)cc2)c2ccccc21` [Compound 141, 1-(4-(4-chlorophenyl)-3,4-dihydroquinoxaline-1(2H)-yl)-3-(piperidin-1-yl)propan-1-one] has an inhibition at 10 µM of 50 to 70%. Compound `O=C(CN1CCCCC1)N1CCN(Cc2ccccc2Cl)c2ccccc21` [Compound 94, 1-(4-(2-chlorobenzyl)-3,4-dihydroquinoxaline-1(2H)-yl)-2-(piperidin-1-yl)ethan-1-one] has an inhibition at 10 µM of 50 to 70%. `CC(C(=O)N1CCN(C2CCCCC2)c2ccccc21)N1CCN(C)CC1` (stereo not drawn) [Compound 192, 1-(4-cyclohexyl-3,4-dihydroquinoxaline-1(2H)-yl)-2-(4-methylpiperazin-1-yl)propan-1-one] showed an inhibition at 10 µM of less than 50%. In the case of `CC(C(=O)N1CCN(c2ccc(F)cc2)c2ccccc21)N1CCN(C)CC1` (stereo not drawn) [Compound 34, 1-(4-(4-fluorophenyl)-3,4-dihydroquinoxaline-1(2H)-yl)-2-(4-methylpiperazin-1-yl)propan-1-one], the inhibition at 10 µM is reported as less than 50%. For `CN1CC[C@@H](NCCC(=O)N2CCN(c3ccc(F)cc3)c3ccccc32)C1` [Compound 26, (R)-1-(4-(4-fluorophenyl)-3,4-dihydroquinoxaline-1(2H)-yl)-3-((1-methylpyrrolidin-3-yl)amino)propan-1-one], the inhibition at 10 µM was no less than 70%. Work on `CC(C(=O)N1CCN(c2ccccn2)c2ccccc21)N1CCCC1` (stereo not drawn) [Compound 149] yielded an inhibition at 10 µM of less than 50%.
